Test results taken from US5747538A, “Use of ginsenoside R0 or a plant extract containing same to promote collagen synthesis” (priority 1994, dated 1998).
Read-outs that look alike come from different tables or passages of the source.

Key:
[1] = system: collagen I; assay: ELISA measurement of collagen I synthesis (collagen I secreted into the medium) in fibroblast culture, 48 h; type: cell-based, human; settings: for ng collagen I/10^4 cells/48 h: mean±SD, control 2004 ± 132; for ng coll. I/10,000 HF/48 h: control (Asc. 25 μM + DMSO 0.1%) 2466 ± 289
Procedure: An ELISA method is used to measure collagen I synthesis, with and without treatment, on a culture of fibroblasts originating from a face lift performed on a person.
a.1) Fibroblast cultures:
The fibroblasts are cultivated by the explant method up to the point of confluence, at 37° C., in a medium consisting of a mixture of E199-C medium and 10% fetal calf serum, in a humidity-saturated atmosphere containing 5% of CO2.
Then, after detachment with an isotonic solution containing 0.1% of trypsin and 0.02% of EDTA, buffered to pH 7.2, the cells are inoculated into 96-well microplates (FALCON) at a rate of 10^4 cells per well in an E199-C medium containing 2% of serum.
After 24 h this medium is replaced, for 48 h of incubation, with the same medium without serum and containing 25 μM sodium ascorbate (incubation medium), with or without the test products. The products, solubilized in DMSO, are added to the culture medium at different concentrations.
a.2) Assay of collagen I:
The amount of collagen I secreted into the medium after 48 h of incubation with or without the products was determined by means of an ELISA (Enzyme-Linked Immuno Sorbent Assay) test.
The incubation medium is collected and transferred to the wells of a microtiter plate (Nunc Immunoplate) containing protease inhibitors. Incubation for 24 h at 4° C. allows the collagen to adhere to the plastic. The plates are then rinsed with PBS (Phosphate Buffered Saline).
After 24 h of incubation at 4° C. with serum albumin to prevent non-specific antibody-plastic binding, anti-human collagen I rabbit antibodies (Institut Pasteur, Lyon, France) are added over 1.5 h at 22° C. After rinsing with PBS, the bound antibodies are disclosed with anti-rabbit IgG goat antibodies (INTERCHIM, Montlugon, France) conjugated with an alkaline phosphatase, which, in the presence of paranitrophenyl phosphate, will produce a paranitrophenol absorbing at 405 nm.
The optical densities obtained are converted to nanograms of collagen using a calibration curve established under the same experimental conditions with purified human collagen I (Institut Jacques Boy, France).
a.3) Statistical interpretation:
The amounts of collagen (mean±standard deviation) secreted by the treated and untreated cells are compared by means of a Student t test. The significance level is taken as 0.05.
b.1) The protocol described above is applied in order to study the effect of the concentration of ginsenoside R0 on the stimulation of collagen I synthesis.
Table 1 gives the results obtained with compositions respectively containing 0, 1, 2.5 and 10 μg of ginsenoside R0 per ml.

[2] = system: collagen III; assay: ELISA measurement of collagen III synthesis in fibroblast culture, 72 h; type: cell-based; settings: Homo sapiens, read-out: stimulation of synthesis of collagen III
Procedure: The protocol is the same as that described with collagen I except that the ELISA is directed against collagen III (human) and the culture treatment time is 72 h instead of the 48 h with collagen I.

**Q.** `CC1(C)CC[C@]2(C(=O)O[C@@H]3O[C@H](CO)[C@@H](O)[C@H](O)[C@H]3O)CC[C@]3(C)C(=CC[C@@H]4[C@@]5(C)CC[C@H](O[C@@H]6O[C@H](C(=O)O)[C@@H](O)[C@H](O)[C@H]6O[C@@H]6O[C@H](CO)[C@@H](O)[C@H](O)[C@H]6O)C(C)(C)[C@@H]5CC[C@]43C)[C@@H]2C1` [ginsenoside R0] was tested. Which activation at 1 µg/mL ([1]; Homo sapiens, Fibroblast, 48 h, Table 1, 1 μg/ml, S: significant at the 0.05 level, read-out: Stimulation of synthesis (collagen I)) did it give?
**A.** 8%

**Q.** What about the activation at 2.5 µg/mL ([1]; Homo sapiens, Fibroblast, 48 h, Table 1, 2.5 μg/ml, S: significant at the 0.05 level, read-out: Stimulation of synthesis (collagen I)) of the same molecule?
**A.** 29%

**Q.** And the activation at 10 µg/mL ([1]; Homo sapiens, Fibroblast, 48 h, Table 1, 10 μg/ml, S: significant at the 0.05 level, read-out: Stimulation of synthesis (collagen I))?
**A.** 44%

**Q.** What about the activation at 1 µg/mL ([1]; Homo sapiens, Fibroblast, 48 h, Table 2, 1 μg/ml, Example 1 S (p = 0.021), Example 2 S (p = 0.0006), ginsenoside R0 NS, read-out: % stimulation/control (collagen I)) of the same molecule?
**A.** 1%

**Q.** And the activation at 1.5 µg/mL ([1]; Homo sapiens, Fibroblast, 48 h, Table 2, 1.5 μg/ml, S (p = 0.024), read-out: % stimulation/control (collagen I))?
**A.** 43%

**Q.** What about the activation at 10 µg/mL ([1]; Homo sapiens, Fibroblast, 48 h, Table 2, 10 μg/ml, Example 1 S (p = 0.003), Example 2 S (p = 0.0006), ginsenoside R0 S (p = 0.002), read-out: % stimulation/control (collagen I)) of the same molecule?
**A.** 66%

**Q.** And the “ng collagen I/10^4 cells/48 h” value ([1]; Table 1, 1 μg/ml)?
**A.** 2172 ± 88 ng collagen I/10^4 cells/48 h

**Q.** What about the “ng collagen I/10^4 cells/48 h” value ([1]; Table 1, 2.5 μg/ml) of the same molecule?
**A.** 2599 ± 163 ng collagen I/10^4 cells/48 h

**Q.** What about the “ng collagen I/10^4 cells/48 h” value ([1]; Table 1, 10 μg/ml) of the same molecule?
**A.** 2889 ± 74 ng collagen I/10^4 cells/48 h

**Q.** And the “ng coll. I/10,000 HF/48 h” value ([1]; Table 2, 1 μg/ml)?
**A.** 2482 ± 276 ng coll. I/10,000 HF/48 h

**Q.** What about the “ng coll. I/10,000 HF/48 h” value ([1]; Table 2, 1.5 μg/ml) of the same molecule?
**A.** 3529 ± 516 ng coll. I/10,000 HF/48 h

**Q.** What about the “ng coll. I/10,000 HF/48 h” value ([1]; Table 2, 10 μg/ml) of the same molecule?
**A.** 4099 ± 480 ng coll. I/10,000 HF/48 h

**Q.** What about the activation at 2.5 µg/mL ([2]; 2.5 μg/ml) of the same molecule?
**A.** 33%

**Q.** And the activation at 10 µg/mL ([2]; 10 μg/ml)?
**A.** 81%
